Columns and labels:
[1] = tested on: HEK293 human kidney cell line; assay: Cell viability, kidney cell line; format: cell-based
Protocol: Experiments described in this document are carried out in zebrafish embryos (cell cycle experiments) and lck-GFP transgenic larvae (5 to 8 days after fertilization), and in human cell lines (Jurkat is a human T cell leukemia, RS4; 11 is a human B cell leukemia and HEK293 is a human kidney cell line).
Cell culture experiments: Cells were incubated at 37° C. in 75 mL flasks in RPMI containing 10% FBS, 5 mL Penicillin/Streptomycin (100×) in a total volume of […]. Cells were counted using a hemocytometer, and 25,000 cells were plated in each well of a 96-well plate. Compounds and controls were added and cells were harvested after a 48 hr incubation period.
To assess effects of compounds, cell viability was measured. For this, cells were incubated with MTT [3-(4,5-[…])-2,5 diphenyl Tetrazolium Bromid], a compound that is transformed into a formazan crystal by mitochondrial dehydrogenases. After crystal solubilization with DMSO a blue color (that is proportional to the amount of crystal formed) can be measured. Formazan solution absorbs light at 550-570 nm but not at 620-650 nm. 620-650 nm absorbency results from cell debris and well imperfections. Final optical density (OD) obtained from formazan formation was calculated OD=L1-L2 (background).
Next, the nine compounds were tested for activity against the human T-ALL line: Jurkat and the human B-ALL line RS 4; 11. […]

[2] = Complete blood count (CBC) evaluation in mice; format: in vivo, male Swiss Albino mouse; settings: mouse, 48 h after dosing
Protocol: The pharmacokinetics of 1H-indole-3-carbaldehyde quinolin-8-ylhydrazone (Compound C3) was evaluated following intravenous (3 mg/kg) and oral (15 mg/kg) solution administration of 1H-indole-3-carbaldehyde quinolin-8-ylhydrazone in male Swiss Albino mouse. The effect of the Test Item, 1H-indole-3-carbaldehyde quinolin-8-ylhydrazone on complete blood count (CBC) was also evaluated. Pharmacokinetic phase consisted of two groups, Group 1 and Group 2. Animals in Group 1 were given intravenous bolus dose in a vehicle containing 5% N,N-dimethylacetamide, 5% CREMOPHOR™ EL and 90% Dextrose solution (5% w/v) and those in Group 2 were given oral solution dose in a vehicle, the composition of which was same as that of intravenous formulation. In addition, the effect of Test Item on complete blood count was evaluated following intravenous and oral dose administration along with its vehicle controls. A total of four groups were used each with 6 mice.
From the pharmacokinetic group, predose samples were collected from 3 animals in each group. Following dose administration terminal blood samples were collected at each of the following time points (in triplicate): 0.083 (only for intravenous), 0.25, 0.5, 1, 2, 4, 8, 12 and 24 hours. At each time point, approximately 500 μL of whole blood was withdrawn from the retro orbital sinus and collected in labeled tubes containing dipotassium EDTA as anticoagulant (20 μL of 200 mM K2 EDTA solution per mL of blood). Plasma was separated by centrifuging the whole blood at about 2500 g for 10 minutes at 4° C. within 1 h of sample collection. Separated plasma was stored below minus 50° C. until bioanalysis. A sensitive LC-MS/MS method was used for the quantitation of 1H-indole-3-carbaldehyde quinolin-8-ylhydrazone. The lower limit of quantitation was 1.04 ng/mL. For CBC evaluation, approximately 500 μL of blood was collected in labeled tubes containing dipotassium EDTA as anticoagulant (10 […]/mL of blood) after 48 h of dose administration from all animals.
A total of 24 mice were divided in to four groups as follows: […]

C(=NNc1cccc2cccnc12)c1c[nH]c2ccccc12 [Compound C3, 1H-indole-3-carbaldehyde quinolin-8-ylhydrazone]
Effect on kidney cell line (viability) [1]: neither the kidney cell line, nor the B-ALL were affected
Other hematological parameters vs vehicle control ([2]; intravenous 3 mg/kg and oral 15 mg/kg): no effect
White blood cell count vs vehicle control ([2]; intravenous 3 mg/kg): lower
Platelet count vs vehicle control ([2]; oral 15 mg/kg): lower

Reference: US8039505B2, “Compounds for modulating T-cells” (University of Utah Research Foundation, priority 2007, dated 2011)
